Laboratory results published in patent US6873914B2, “Methods and systems for analyzing complex biological systems” (Icoria, Inc., priority 2001, dated 2005).
Entries after “also recorded” stand apart in the source; their conditions may differ.

Tests used:
Arabidopsis thaliana [1] = experiment: MOA1 gene expression profiling (22,000 gene array) of treated Arabidopsis; type: in vivo; conditions: for No. of Lethal Genes Altered: regulated genes identified as essential for plant growth and development (internal database); for gene expression perturbations compared to the other treatments: MOA1, 1 hr
[2] = test system: Arabidopsis thaliana plants; experiment: SOA1 phenotypic analysis of herbicide-treated Arabidopsis plants; type: in vivo; conditions: for Symptom Class: Arabidopsis sprayed with herbicide, phenotypes of the classes pictured in FIG. 12; for characteristic symptoms (morphological phenotype): in words; for leafCurling (Dev.) / leafTwisting (Dev.) / leafWidth (Dev.) / matureLeafAnthocyanins (Dev.) / matureLeafChlorosis (Dev.) / matureLeafNecrosis (Dev.) / newLeafAnthocyanins (Dev.) / newLeafChlorosis (Dev.) / newLeafNecrosis (Dev.) / pointedLeaves (Dev.): numeric value standardized to mock treated plants; for tMic (Dev.): score for time required to exhibit full range of symptoms at the MIC
[3] = test system: Saccharomyces cerevisiae wild type strain BY4743; experiment: AF1 metabolite analysis (GC-MS, LC-MS) of yeast cells treated with antifungal drugs; type: cell-based
Arabidopsis thaliana [4] = experiment: MOA1 phenotypic profiling of Arabidopsis sprayed with unknown and commercial herbicides; type: in vivo; conditions: in words
Arabidopsis thaliana [5] = experiment: MOA1 biochemical (metabolite) profiling by LC-MS and GC-MS of treated Arabidopsis; conditions: after one hour
Magnaporthe grisea = type: cell-based
PSI, PROTOX = experiment: PSI / PROTOX inhibition (unpublished data)

CP(=O)(O)CCC(N)C(=O)O (centres unmarked) [Glufosinate]
No. of Lethal Genes Altered (Arabidopsis thaliana [1]): 10 | Symptom Class [2]: 3 | characteristic symptoms (morphological phenotype) [2]: Chlorosis and leaf curling | leafCurling (Dev.) [2]: 2 | leafTwisting (Dev.) [2]: 1 | leafWidth (Dev.) [2]: −2 | matureLeafAnthocyanins (Dev.) [2]: 0 | matureLeafChlorosis (Dev.) [2]: 3 | matureLeafNecrosis (Dev.) [2]: 0 | newLeafAnthocyanins (Dev.) [2]: 0 | newLeafChlorosis (Dev.) [2]: 3 | newLeafNecrosis (Dev.) [2]: 0 | pointedLeaves (Dev.) [2]: 1 | tMic (Dev.) [2]: 1

O=C(O)COc1ccc(Cl)cc1Cl [2,4-D]
Symptom Class [2]: 5 | leafCurling (Dev.) [2]: 1 | leafTwisting (Dev.) [2]: 2 | leafWidth (Dev.) [2]: −1 | matureLeafAnthocyanins (Dev.) [2]: 1 | matureLeafChlorosis (Dev.) [2]: 2 | matureLeafNecrosis (Dev.) [2]: 0 | newLeafAnthocyanins (Dev.) [2]: 0 | newLeafChlorosis (Dev.) [2]: 1 | newLeafNecrosis (Dev.) [2]: 0 | pointedLeaves (Dev.) [2]: 0 | tMic (Dev.) [2]: 2

CC[C@@H]([C@H](C)O)n1ncn(-c2ccc(N3CCN(c4ccc(OC[C@@H]5CO[C@@](Cn6cncn6)(c6ccc(F)cc6F)C5)cc4)CC3)cc2)c1=O [Posaconazole]
Fold Change ([3]; metabolite anthranilic acid, platform nLC): 0 | Fold Change ([3]; metabolite anthranilic acid, platform pLC): 0 | Fold Change ([3]; metabolite biotin, platform LC): 0

CN(C)C(=O)Nc1ccc(Cl)c(Cl)c1 [Diuron]
Symptom Class [2]: 7 | characteristic symptoms (morphological phenotype) [2]: rapid and widespread leaf necrosis | leafCurling (Dev.) [2]: 1 | leafTwisting (Dev.) [2]: 0 | leafWidth (Dev.) [2]: −2 | matureLeafAnthocyanins (Dev.) [2]: 0 | matureLeafChlorosis (Dev.) [2]: 2 | matureLeafNecrosis (Dev.) [2]: 4 | newLeafAnthocyanins (Dev.) [2]: 0 | newLeafChlorosis (Dev.) [2]: 2 | newLeafNecrosis (Dev.) [2]: 4 | pointedLeaves (Dev.) [2]: 1 | tMic (Dev.) [2]: 1

COC(=O)NS(=O)(=O)c1ccc(N)cc1 [Asulam]
gene expression perturbations compared to the other treatments (Arabidopsis thaliana [1]): fewest gene expression perturbations | No. of Lethal Genes Altered (Arabidopsis thaliana [1]): 5

CCSC(=O)N(CC(C)C)CC(C)C [Butylate]
phenotype / hierarchical cluster analysis of the eleven phenotypic characteristics (Arabidopsis thaliana [4]): neither showed a strong herbicidal phenotype

CC[C@@H]([C@H](C)O)n1ncn(-c2ccc(N3CCN(c4ccc(OC[C@@H]5CO[C@@](Cn6cncn6)(c6ccc(F)cc6F)C5)cc4)CC3)cc2)c1=O [Posaconazote]
Fold Change, porphobilinogen ([3]; detected metabolite, platform nLC, p-Value 1): 0

CS(=O)(=O)c1cc(C(F)(F)F)ccc1C(=O)c1cnoc1C1CC1 [Isoxaflutole]
No. of Lethal Genes Altered (Arabidopsis thaliana [1]): 15 | tyrosine and phenylalanine relative to the control (Arabidopsis thaliana [5]): up-regulated; also recorded: began to accumulate | M. grisea growth in minimal media (Magnaporthe grisea; concentration insufficient to inhibit growth): unaffected | M. grisea growth in minimal plus tyrosine (sole nitrogen source) media (Magnaporthe grisea; concentration insufficient to inhibit growth (sub-inhibitory)): inhibited

CCNc1nc(Cl)nc(NC(C)C)n1 [Atrazine]
characteristic symptoms (morphological phenotype) [2]: rapid and widespread leaf necrosis

CC(C)C1(C)N=C(c2ncccc2C(=O)O)NC1=O (centres unmarked) [Imazapyr]
characteristic symptoms (morphological phenotype) [2]: anthocyanin accumulation in the older leaves accompanied by chlorosis of the newly emerging leaves

Nc1nc[nH]n1 [Amitrole]
phenotype / hierarchical cluster analysis of the eleven phenotypic characteristics (Arabidopsis thaliana [4]): exhibited chlorosis and not true bleaching | characteristic symptoms (morphological phenotype) [2]: leaf bleaching and leaf enlargement

CC[C@@H]([C@H](C)O)n1ncn(-c2ccc(N3CCN(c4ccc(OC[C@@H]5CO[C@@](Cn6cncn6)(c6ccc(F)cc6F)C5)cc4)CC3)cc2)c1=O [Posaconazoie]
Fold Change ([3]; metabolite luteolin, platform LC): 0

COc1nc(C)nc(NC(=O)NS(=O)(=O)c2ccccc2Cl)n1 [Chlorsulfuron]
No. of Lethal Genes Altered (Arabidopsis thaliana [1]): 8 | characteristic symptoms (morphological phenotype) [2]: anthocyanin accumulation in the older leaves accompanied by chlorosis of the newly emerging leaves

CC(C)OC(=O)Nc1cccc(Cl)c1 [Chloropropham]
phenotype / hierarchical cluster analysis of the eleven phenotypic characteristics (Arabidopsis thaliana [4]): neither showed a strong herbicidal phenotype

c1cc[n+]2c(c1)-c1cccc[n+]1CC2 [Diquat]
Symptom Class [2]: 7 | characteristic symptoms (morphological phenotype) [2]: rapid and widespread leaf necrosis | leafCurling (Dev.) [2]: 2 | leafTwisting (Dev.) [2]: 0 | leafWidth (Dev.) [2]: −2 | matureLeafAnthocyanins (Dev.) [2]: 0 | matureLeafChlorosis (Dev.) [2]: 1 | matureLeafNecrosis (Dev.) [2]: 4 | newLeafAnthocyanins (Dev.) [2]: 0 | newLeafChlorosis (Dev.) [2]: 1 | newLeafNecrosis (Dev.) [2]: 4 | pointedLeaves (Dev.) [2]: 1 | tMic (Dev.) [2]: 2

CCc1cnc(C2=NC(C)(C(C)C)C(=O)N2)c(C(=O)O)c1 (centres unmarked) [Imazethapyr]
characteristic symptoms (morphological phenotype) [2]: anthocyanin accumulation in the older leaves accompanied by chlorosis of the newly emerging leaves

CSc1nnc(C(C)(C)C)c(=O)n1N [Metribuzin]
characteristic symptoms (morphological phenotype) [2]: rapid and widespread leaf necrosis

OC(Cn1cncn1)(Cn1cncn1)c1ccc(F)cc1F [Fluconazole]
Fold Change: abscisic acid ([3]; LC): 0 | Fold Change: adenosine ([3]; LC): 0

O=C(O)c1cc(Oc2ccc(C(F)(F)F)cc2Cl)ccc1[N+](=O)[O-] [Acifluorfen]
characteristic symptoms (morphological phenotype) [2]: Necrotic leaf flecks

CCc1cccc(C)c1N(C(=O)CCl)C(C)COC (centres unmarked) [Metolachlor]
PSI or PROTOX inhibitor (PSI, PROTOX): neither a PSI nor a PROTOX inhibitor

C[n+]1ccc(-c2cc[n+](C)cc2)cc1 [Paraquat]
Symptom Class [2]: 7 | characteristic symptoms (morphological phenotype) [2]: rapid and widespread leaf necrosis

COC(=O)c1cc(Oc2ccc(Cl)cc2Cl)ccc1[N+](=O)[O-] [Bifenox]
characteristic symptoms (morphological phenotype) [2]: Necrotic leaf flecks

CC(C)N1C(=O)c2ccccc2NS1(=O)=O [Bentazon]
characteristic symptoms (morphological phenotype) [2]: rapid and widespread leaf necrosis

O=C(O)CNCP(=O)(O)O [Glyphosate]
tyrosine (downstream metabolite) relative to the control (Arabidopsis thaliana [5]): decreased | M. grisea growth with nitrate, nitrite, or glutamate as the sole nitrogen source (Magnaporthe grisea): inhibited growth | Growth of M. grisea with ammonium or glutamine as nitrogen source, Tier 4 (Magnaporthe grisea; 250 μg/ml): Little growth defect | M. grisea growth results for Tiers 3 and 4 (Magnaporthe grisea; 250 μg/ml): nearly identical as compared to Unknown 4 | M. grisea growth inhibition, effect of aromatic amino acids in the media (Magnaporthe grisea; 1.0 mg/ml): remediated by inclusion of aromatic amino acids | Symptom Class [2]: 4 | characteristic symptoms (morphological phenotype) [2]: anthocyanin accumulation in the older leaves accompanied by chlorosis of the newly emerging leaves | leafCurling (Dev.) [2]: 0 | leafTwisting (Dev.) [2]: 0 | leafWidth (Dev.) [2]: 0 | matureLeafAnthocyanins (Dev.) [2]: 3 | matureLeafChlorosis (Dev.) [2]: 1 | matureLeafNecrosis (Dev.) [2]: 3 | newLeafAnthocyanins (Dev.) [2]: 1 | newLeafChlorosis (Dev.) [2]: 2 | newLeafNecrosis (Dev.) [2]: 0 | pointedLeaves (Dev.) [2]: 1 | tMic (Dev.) [2]: 2

O=C(O)c1ccccc1C(=O)Nc1cccc2ccccc12 [Naptalam]
gene expression perturbations compared to the other treatments (Arabidopsis thaliana [1]): fewest gene expression perturbations | No. of Lethal Genes Altered (Arabidopsis thaliana [1]): 3
